The nature of test [1]: Inhibition of R17 coat protein binding to [33P]labeled R17 operator RNA.
Another test has as its system Candida albicans. The test can be described thus: Antifungal activity against Candida albicans. Type of test: functional.
Test [2] in a line: Ratio of IC50 for R17 activity to IC50 for HIV1 Rev activity.
Test [3] in a line: Inhibition of HIV1 recombinant Rev protein expressed in Escherichia coli binding to HIV1 Rre RNA by liquid scintillation assay. Also noted: species or system Human immunodeficiency virus 1.
In a further test the test system is M109. Kind of test: Antitumor activity against mouse M109 cells. Type of test: functional.
The next test concerns Penicillium chrysogenum. The test can be described thus: Antifungal activity against Penicillium chrysogenum. Type of test: functional.

Molecules are shown by their SMILES. Values after ≈ are worked out from the molar mass of the structure shown. Bounds are passed on as bounds.

In the case of `CC[C@@H]1Oc2ccn(O)c(=O)c2[C@H]2[C@H](C)C[C@H](C)C[C@]12C` [FUSARICIDE], the IC50 (as a rule, the point on the concentration scale where inhibition reaches its midpoint) in test [1] was found to be 75 µg/mL (≈ 257 µM); in test [3], 40 µg/mL. Also, the figures for the MIC against Candida albicans and in the test with Penicillium chrysogenum were 16 µg/mL (≈ 54.9 µM) and 8 µg/mL (≈ 27.5 µM), respectively. In test [2], the Ratio IC50 was less than 2. The Activity with M109 is 1 µg/mL.
